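Each compound was tested at five concentrations against cells in 96-well plates for 48 hours. Here, GI50 denotes the concentration required for 50% inhibition of growth.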 Activity calls are given as the source filed them. No stated cut-off is given here; in the data, active = GI50 up to about 1.1 µM and inactive = higher.
Tests used:
Assay in all cases: growth of human tumour cells (NCI), 48 h
OVCAR-8 = tested on: OVCAR-8
UO-31 = tested on: UO-31
UACC-257 = tested on: UACC-257
OVCAR-4 = tested on: OVCAR-4
Malme-3M = tested on: Malme-3M
SW-620 = tested on: SW-620
K562 = tested on: K562
SNB-19 = tested on: SNB-19
OVCAR-5 = tested on: OVCAR-5
SF-539 = tested on: SF-539
EKVX = tested on: EKVX
HOP-62 = tested on: HOP-62
A549 = tested on: A549
NCI-H23 = tested on: NCI-H23
ACHN = tested on: ACHN
U-251 = tested on: U-251
TK-10 = tested on: TK-10
NCI-H226 = tested on: NCI-H226
SK-MEL-28 = tested on: SK-MEL-28

Measured: GI50

COC(=O)[C@]1(C)CCC[C@@]2(C)C1CCC1=CC3(C(C)C)CCC12OO3 (stereo not given in full)
inactive: OVCAR-8 63.8 µM | UO-31 41 µM | UACC-257 31.5 µM | OVCAR-4 51.3 µM | Malme-3M 36.2 µM | SW-620 > 100 µM | K562 27.7 µM | SNB-19 > 100 µM | OVCAR-5 > 100 µM | SF-539 > 100 µM | EKVX 90.6 µM | HOP-62 > 100 µM | A549 44 µM | NCI-H23 77.1 µM | ACHN 63.4 µM | U-251 > 100 µM | TK-10 > 100 µM | NCI-H226 43.7 µM

CCOC(=O)C1(C#N)C(c2ccccc2)CC(O)(c2ccc(Cl)cc2)C(C(=O)c2ccc(Cl)cc2)C1c1ccccc1 (stereo not given)
inactive: OVCAR-8 > 100 µM | UO-31 > 100 µM | UACC-257 > 100 µM | SK-MEL-28 > 100 µM | OVCAR-4 > 100 µM | Malme-3M > 100 µM | SW-620 > 100 µM | K562 > 10 µM | SNB-19 34 µM | OVCAR-5 > 100 µM | EKVX 52.2 µM | HOP-62 > 100 µM | A549 > 100 µM | NCI-H23 > 100 µM | ACHN > 100 µM | U-251 > 10 µM | TK-10 > 100 µM | NCI-H226 > 100 µM

N#C/C(=C1/c2cc([N+](=O)[O-])ccc2-c2c1cc([N+](=O)[O-])cc2[N+](=O)[O-])N1CCCCC1
inactive: OVCAR-8 > 100 µM | UO-31 > 100 µM | UACC-257 > 100 µM | SK-MEL-28 > 100 µM | OVCAR-4 23.9 µM | Malme-3M > 100 µM | SW-620 > 100 µM | K562 > 100 µM | SNB-19 > 100 µM | OVCAR-5 > 100 µM | EKVX > 100 µM | HOP-62 32.4 µM | A549 > 100 µM | NCI-H23 55.7 µM | ACHN > 100 µM | U-251 71.8 µM | TK-10 > 100 µM | NCI-H226 > 100 µM

COC(=O)CNS(=O)(=O)c1ccc(-c2c3nc(c(-c4ccc(S(=O)(=O)NCC(=O)OC)cc4)c4ccc([nH]4)c(-c4ccc(S(=O)(=O)NCC(=O)OC)cc4)c4nc(c(-c5ccc(S(=O)(=O)NCC(=O)OC)cc5)c5ccc2[nH]5)C=C4)C=C3)cc1
inactive: OVCAR-8 > 100 µM | UO-31 > 100 µM | UACC-257 > 100 µM | SK-MEL-28 > 100 µM | OVCAR-4 > 100 µM | Malme-3M > 100 µM | SW-620 > 100 µM | K562 > 100 µM | SNB-19 > 100 µM | OVCAR-5 > 100 µM | SF-539 > 100 µM | EKVX > 100 µM | HOP-62 > 100 µM | A549 > 100 µM | NCI-H23 > 100 µM | ACHN > 100 µM | U-251 82.6 µM | TK-10 > 100 µM

COc1ccc(N2C(=O)[C@@H]3[C@H](C2=O)c2[nH]c4ccccc4c2C2CCC(C(C)(C)C)C[C@@H]23)cc1 (stereo not given in full)
inactive: OVCAR-8 18 µM | UO-31 > 47.4 µM | UACC-257 40.6 µM | SK-MEL-28 34.4 µM | Malme-3M 30.4 µM | SW-620 35.2 µM | K562 14.5 µM | SNB-19 22.1 µM | OVCAR-5 > 100 µM | SF-539 22.9 µM | EKVX 28.4 µM | HOP-62 16.5 µM | A549 24.2 µM | NCI-H23 22.4 µM | ACHN 24.3 µM | U-251 20.9 µM | TK-10 28 µM | NCI-H226 22.3 µM

O=C1C(Cl)C(c2ccccc2Cl)N1n1cnc2ccccc2c1=O (stereo not given)
inactive: OVCAR-8 > 100 µM | UO-31 7.52 µM | UACC-257 37.2 µM | SK-MEL-28 > 100 µM | OVCAR-4 > 100 µM | Malme-3M > 100 µM | SW-620 31.9 µM | K562 18.7 µM | SNB-19 22.5 µM | OVCAR-5 > 100 µM | EKVX 18.5 µM | HOP-62 16.3 µM | A549 > 100 µM | NCI-H23 49.1 µM | ACHN 76.2 µM | U-251 48.4 µM | TK-10 46.7 µM | NCI-H226 8.32 µM

CN(C)c1ccc(/C=C2\Oc3ccccc3C2=O)cc1
inactive: OVCAR-8 > 100 µM | UO-31 52.2 µM | UACC-257 > 100 µM | SK-MEL-28 > 100 µM | OVCAR-4 > 100 µM | SW-620 > 100 µM | K562 21.5 µM | SNB-19 > 100 µM | SF-539 > 100 µM | EKVX > 100 µM | HOP-62 > 100 µM | A549 > 100 µM | NCI-H23 > 100 µM | ACHN > 100 µM | U-251 > 100 µM | TK-10 > 100 µM | NCI-H226 > 100 µM

OC1C2CN3CCN(C2)CC1(c1ccccc1)C3 (stereo not given)
inactive: OVCAR-8 > 100 µM | UO-31 > 100 µM | UACC-257 > 100 µM | SK-MEL-28 > 100 µM | OVCAR-4 > 100 µM | Malme-3M > 100 µM | SW-620 > 100 µM | K562 > 100 µM | SNB-19 > 100 µM | OVCAR-5 > 100 µM | SF-539 > 100 µM | EKVX > 100 µM | HOP-62 > 100 µM | NCI-H23 > 100 µM | ACHN > 100 µM | U-251 > 100 µM | TK-10 > 100 µM | NCI-H226 > 100 µM

N#Cc1nc(COCCOCc2ccc(F)cc2)oc1N
inactive: OVCAR-8 > 100 µM | UO-31 50.4 µM | UACC-257 > 100 µM | SK-MEL-28 > 100 µM | OVCAR-4 > 100 µM | SW-620 > 100 µM | K562 > 100 µM | OVCAR-5 > 100 µM | SF-539 > 100 µM | EKVX > 100 µM | HOP-62 > 100 µM | A549 > 100 µM | NCI-H23 > 100 µM | ACHN > 100 µM | U-251 > 100 µM | TK-10 > 100 µM | NCI-H226 > 100 µM

O=C(O)c1nc(-c2ccc(Cl)c(Cl)c2)nc2ccc(Cl)cc12
inactive: OVCAR-8 70.6 µM | UO-31 > 100 µM | UACC-257 > 100 µM | SK-MEL-28 > 100 µM | Malme-3M > 100 µM | SW-620 > 100 µM | K562 > 10 µM | SNB-19 51.9 µM | OVCAR-5 > 100 µM | SF-539 > 100 µM | EKVX > 100 µM | HOP-62 38.2 µM | A549 > 100 µM | NCI-H23 38.3 µM | ACHN > 100 µM | U-251 61.5 µM | TK-10 44.8 µM

N#CC(C#N)=Cc1ccc(Oc2ccccc2)cc1
inactive: OVCAR-8 25.5 µM | UO-31 25.9 µM | UACC-257 25.6 µM | SK-MEL-28 15.8 µM | Malme-3M 21.7 µM | SW-620 32.4 µM | K562 26.7 µM | SNB-19 37.3 µM | OVCAR-5 > 100 µM | SF-539 19.9 µM | EKVX > 100 µM | HOP-62 65.8 µM | A549 > 100 µM | NCI-H23 23.6 µM | ACHN 21.3 µM | U-251 23.4 µM | TK-10 55.5 µM | NCI-H226 > 43.9 µM

Reference: ChEMBL document CHEMBL1201862, “PubChem BioAssay data set” (2004)
